{"source": "patent US20090311237A1", "about": "“Combination therapy using a soluble hyaluronidase and a bisphosphonate” (priority 2008, published 2009)", "key": {"Sprague Dawley rats [1]": {"tested_on": "Sprague Dawley rats", "assay": "Semi-quantitative histopathology of skin at injection site after ID zoledronic acid with or without rHuPH20", "assay_type": "in vivo", "set-up": "key: —: Dash indicates no incidence of the indicated observation", "details": "rat ID; ZA 0.4 mg/mL; rHuPH20 0 U/ml; 4 days", "protocol": "(§1) Nine to ten week old female Sprague Dawley rats, having approximate body weight of 200-250 grams, were employed for the study. One day prior to injection, rats were shaved and hair on the back and flank area were removed by Nair® cream (exposure less than 1 min to depilation cream) followed by deep wash with warm tap water. On the day of dosing, all rats were injected intradermally in flank area (one or two injection spots per side), with 0.1 or 0.2 mL as indicated of zoledronic acid solution, with or without rHuPH20, at each corresponding concentration as shown in study design table. Injection site appearance was observed and quantified by blind assessment each day following the injection until the end of the study, at which time animals were sacrificed and the skin around the dosing area as well as a part of the skin that was not effected by the dosing were collected and fixed in 10% neutral buffered formalin (NBF) and further embedded in paraffin, 5 μm sections were cut for H&E stain and histopathology evaluation.\nLesion area was calculated by the following formula: W×L×¼π. Quantitative results were analyzed using one-way analysis of variance (ANOVA) method, followed by Dunnett's comparison method (Prizm 4 program). […] Histopathologic findings were characterized by semi-quantitative analysis of necrosis and infiltration in the skin tissue. […]"}, "Sprague Dawley rats [2]": {"tested_on": "Sprague Dawley rats", "assay": "Semi-quantitative histopathology of skin at injection site after ID zoledronic acid with or without rHuPH20", "assay_type": "in vivo", "set-up": "key to Necrosis: Mid-dermis / Infiltration: Focal / Infiltration: Muscular / Necrosis: Epidermis / Infiltration: Skin Diffuse / Infiltration: Muscle: —: Dash indicates no incidence of indicated finding; key to Infiltration: Skin Focal: —: Dash indicates no incidence of the indicated observation", "details": "rat ID, 4 days", "protocol": "as §1\nLesion area was calculated by the following formula: W×L×¼π. Quantitative results were analyzed using one-way analysis of variance (ANOVA) method, followed by Dunnett's comparison method (Prizm 4 program). The probability values of less than 0.05 (two-tailed) were used as the critical level of significance for all tests. Groups with a sample size of two were excluded from analysis. If the sample size was 2 for the control group, there were no statistical analyses at that interval for any of the groups. Histopathologic findings were characterized by semi-quantitative analysis of necrosis and infiltration in the skin tissue. The incidences of each finding were compared with control groups by Chi-square test.\nPrior to ZA intradermal injection, rats were randomized by body weight into 7 groups of 1 or 2 rats per group (Table 2). Rats were injected with either 0.1 mL or 0.2 mL of each corresponding concentration intradermally at two separate locations on each shaved flank side for a total of 4 injections for each animal. Injection sites were observed daily post-injection for four days. Pictures of injection site reaction (ISR) area were captured by digital camera and lesion area was scored for induration, erythema, or ulceration. Two perpendicular diameters (width & length) of injection site lesion were measured by microcaliper. The lesion area was defined as the area bounded by the outer edge of the erythemic zone. Upon completion of the study, the animals were euthanized and skin at the injection site and from an untreated area of the back of the rat were excised, mounted flat onto a piece of cardboard, and placed in 10% NBF.\nA series of experiments were conducted in which various dosing concentrations of rHuPH20 were tested for the ability to reduce acute injection site lesions. Prior to ZA intra-dermal injection, rats were randomized by body weight into 11 groups of 2 rats per group. Rats were injected intradermally with 0.1 mL of each co-formulated solution as shown in Table 5 and observed daily with ISR development assessed as in Section B. Four days after injection, rats were sacrificed and the skin at the injection site as well as untreated skin from the back was excised, mounted flat onto a piece of cardboard, and placed in 10% NBF. […]"}, "[3]": {"details": "IV infusion; cited from earlier work"}, "[4]": {"assay": "Urinary excretion of unchanged ZA in pigs", "assay_type": "in vivo, pig", "details": "for Dose Amt 2 hr, Mean / Dose Amt 2 hr, Median: n 4; for mean percent of dose excreted unchanged in urine: pig, first 2 hours post dose", "protocol": "Following ZA dose administration, serial blood samples were collected via vascular access ports (VAPs) for serum preparation and determination of ZA concentrations. […] Urine samples were also collected to compare excretion characteristics between IV and SC routes of administration.\nSerum concentration of ZA was determined using a qualified LC-MS-MS assay after derivatization with diazomethane (Zhu, L S et al. (2006) Rapid Commun. Mass Spectrom. 20: 3421-3426; “Qualification Data of An LC-MS/MS Method for the Determination of Zoledronate in Porcine Serum”, MDS Pharma Services Study No. AA43671-01, Report Date 14 Sep. 2007). The assay range was from 2.0 to 400 ng/mL with a lower limit of quantitation (LLOQ) at 2.0 ng/mL. Urine concentration of ZA was determined by a similar well qualified LC-MS-MS method (“Qualification Data of An LC-MS/MS Method for the Determination of Zoledronate in Porcine Urine”, MDS Pharma Services Study No. AA43671-02, Report Date 14 Sep. 2007) with an assay LLOQ at 10 ng/mL.\nAmount of ZA excreted unchanged in urine was determined for the collection interval from dosing to 2-hour post dose and compared between dose routes and co-administration with rHuPH20.\nUrine sample volumes and concentration of ZA in the samples were used to calculate the amount of unchanged ZA excreted via the kidneys. Since continuous collection was halted at 2 hours post dose, the percent of administered ZA dose that were renally excreted was not determined. However, the percent of dose excreted within the 2-hour collection interval was estimated with the relationship that the systemically available SC ZA dose is equal to: […]"}, "[5]": {"details": "Study Group 1, IV infusion, ZA […], dosing to 2 h post dose, n 3"}, "[6]": {"details": "Study Group 2, SC, […] dose only"}, "[7]": {"details": "Study Group 2, SC, n 5, dosing to 2 h post dose"}, "[8]": {"details": "Study Group 3, SC with rHuPH20, […] dose only"}, "[9]": {"details": "Study Group 3, SC with rHuPH20, n 4, dosing to 2 h post dose"}}}
{"smiles": "O=P(O)(O)C(O)(Cn1ccnc1)P(=O)(O)O", "note": "[ZA, 1-hydroxy-2-(1H-imidazol-1-yl)ethylidene-1,1-bisphosphonic acid]", "values": [{"measurement": "Necrosis: Superficial dermis", "setting": "Sprague Dawley rats [1]", "value": "—"}, {"measurement": "Infiltration: Muscle", "setting": "Sprague Dawley rats [2]; ZA 0.05 mg/mL, rHuPH20 0 U/ml", "value": "—"}, {"measurement": "Infiltration: Skin Diffuse", "setting": "Sprague Dawley rats [2]; ZA 0.05 mg/mL, rHuPH20 0 U/ml", "value": "—"}, {"measurement": "Necrosis: Epidermis", "setting": "Sprague Dawley rats [2]; ZA 0.05 mg/mL, rHuPH20 0 U/ml", "value": "—"}, {"measurement": "Infiltration: Skin Focal", "setting": "Sprague Dawley rats [2]; ZA 0.4 mg/mL, rHuPH20 0 U/ml", "value": "—"}, {"measurement": "Infiltration: Muscular", "setting": "Sprague Dawley rats [2]; ZA alone 0.05 mg/mL", "value": "—"}, {"measurement": "Necrosis: Mid-dermis", "setting": "Sprague Dawley rats [2]; ZA alone 0.05 mg/mL", "value": "—"}, {"measurement": "Infiltration: Focal", "setting": "Sprague Dawley rats [2]; ZA alone 0.1 mg/mL", "value": "—"}, {"measurement": "Necrosis: Mid-dermis", "setting": "Sprague Dawley rats [2]; ZA alone 0.1 mg/mL", "value": "—"}, {"measurement": "Infiltration: Focal", "setting": "Sprague Dawley rats [2]; ZA alone 0.2 mg/mL", "value": "—"}, {"measurement": "Necrosis: Mid-dermis", "setting": "Sprague Dawley rats [2]; ZA alone 0.2 mg/mL", "value": "—"}, {"measurement": "Infiltration: Focal", "setting": "Sprague Dawley rats [2]; ZA alone 0.4 mg/mL", "value": "—"}, {"measurement": "Infiltration: Focal", "setting": "Sprague Dawley rats [2]; ZA alone 0.6 mg/mL", "value": "—"}, {"measurement": "Infiltration: Focal", "setting": "Sprague Dawley rats [2]; ZA alone 0.8 mg/mL", "value": "—"}, {"measurement": "patients with skin irritation at the injection site", "setting": "[3]", "value": 1, "unit": "%"}, {"measurement": "Dose Excreted, Mean", "setting": "[4]; [5]", "value": 11.40, "unit": "%"}, {"measurement": "Dose Excreted, Median", "setting": "[4]; [5]", "value": 10.71, "unit": "%"}, {"measurement": "Dose Amt 2 hr, Mean", "setting": "[4]; [6]", "value": 2.87, "unit": "mg"}, {"measurement": "Dose Amt 2 hr, Median", "setting": "[4]; [6]", "value": 2.88, "unit": "mg"}, {"measurement": "Dose Excreted, Mean", "setting": "[4]; [7]", "value": 9.45, "unit": "%"}, {"measurement": "Dose Excreted, Median", "setting": "[4]; [7]", "value": 6.73, "unit": "%"}, {"measurement": "Dose Amt 2 hr, Mean", "setting": "[4]; [8]", "value": 3.00, "unit": "mg"}, {"measurement": "Dose Amt 2 hr, Median", "setting": "[4]; [8]", "value": 3.03, "unit": "mg"}, {"measurement": "Dose Excreted, Mean", "setting": "[4]; [9]", "value": 10.66, "unit": "%"}, {"measurement": "Dose Excreted, Median", "setting": "[4]; [9]", "value": 12.04, "unit": "%"}, {"measurement": "Dose Amt 2 hr (SC AUC(0-2 h) × CL × body weight)", "setting": "[4]; pig 56, Study Group 3, SC with rHuPH20, ZA […]", "value": 3.06, "unit": "mg"}, {"measurement": "Dose Excreted (unchanged in urine)", "setting": "[4]; pig 57, Study Group 1, IV infusion, ZA […], dosing to 2 h post dose", "value": 13.23, "unit": "%"}, {"measurement": "Dose Amt 2 hr (SC AUC(0-2 h) × CL × body weight)", "setting": "[4]; pig 58, Study Group 3, SC with rHuPH20, ZA […]", "value": 3.03, "unit": "mg"}, {"measurement": "Dose Excreted (unchanged in urine)", "setting": "[4]; pig 58, Study Group 3, SC with rHuPH20, ZA […], dosing to 2 h post dose", "value": 0.41, "unit": "%"}, {"measurement": "Dose Amt 2 hr (SC AUC(0-2 h) × CL × body weight)", "setting": "[4]; pig 59, Study Group 2, SC, ZA […]", "value": 1.44, "unit": "mg"}, {"measurement": "Dose Excreted (unchanged in urine)", "setting": "[4]; pig 59, Study Group 2, SC, ZA […], dosing to 2 h post dose", "value": 5.10, "unit": "%"}, {"measurement": "Dose Amt 2 hr (SC AUC(0-2 h) × CL × body weight)", "setting": "[4]; pig 60, Study Group 2, SC, ZA […]", "value": 3.28, "unit": "mg"}, {"measurement": "Dose Excreted (unchanged in urine)", "setting": "[4]; pig 60, Study Group 2, SC, ZA […], dosing to 2 h post dose", "value": 6.73, "unit": "%"}, {"measurement": "Dose Excreted (unchanged in urine)", "setting": "[4]; pig 61, Study Group 1, IV infusion, ZA […], dosing to 2 h post dose", "value": 10.71, "unit": "%"}, {"measurement": "Dose Amt 2 hr (SC AUC(0-2 h) × CL × body weight)", "setting": "[4]; pig 62, Study Group 2, SC, ZA […]", "value": 2.42, "unit": "mg"}, {"measurement": "Dose Excreted (unchanged in urine)", "setting": "[4]; pig 62, Study Group 2, SC, ZA […], dosing to 2 h post dose", "value": 20.08, "unit": "%"}, {"measurement": "Dose Amt 2 hr (SC AUC(0-2 h) × CL × body weight)", "setting": "[4]; pig 64, Study Group 3, SC with rHuPH20, ZA […]", "value": 2.86, "unit": "mg"}, {"measurement": "Dose Excreted (unchanged in urine)", "setting": "[4]; pig 64, Study Group 3, SC with rHuPH20, ZA […], dosing to 2 h post dose", "value": 12.29, "unit": "%"}, {"measurement": "Dose Amt 2 hr (SC AUC(0-2 h) × CL × body weight)", "setting": "[4]; pig 66, Study Group 3, SC with rHuPH20, ZA […]", "value": 1.22, "unit": "mg"}, {"measurement": "Dose Excreted (unchanged in urine)", "setting": "[4]; pig 66, Study Group 3, SC with rHuPH20, ZA […], dosing to 2 h post dose", "value": 18.13, "unit": "%"}, {"measurement": "Dose Excreted (unchanged in urine)", "setting": "[4]; pig 67, Study Group 1, IV infusion, ZA […], dosing to 2 h post dose", "value": 10.25, "unit": "%"}, {"measurement": "Dose Amt 2 hr (SC AUC(0-2 h) × CL × body weight)", "setting": "[4]; pig 68, Study Group 3, SC with rHuPH20, ZA […]", "value": 3.03, "unit": "mg"}, {"measurement": "Dose Excreted (unchanged in urine)", "setting": "[4]; pig 68, Study Group 3, SC with rHuPH20, ZA […], dosing to 2 h post dose", "value": 11.79, "unit": "%"}, {"measurement": "Dose Amt 2 hr (SC AUC(0-2 h) × CL × body weight)", "setting": "[4]; pig 69, Study Group 2, SC, ZA […]", "value": 2.83, "unit": "mg"}, {"measurement": "Dose Excreted (unchanged in urine)", "setting": "[4]; pig 69, Study Group 2, SC, ZA […], dosing to 2 h post dose", "value": 10.19, "unit": "%"}, {"measurement": "Dose Amt 2 hr (SC AUC(0-2 h) × CL × body weight)", "setting": "[4]; pig 70, Study Group 2, SC, ZA […]", "value": 2.93, "unit": "mg"}, {"measurement": "Dose Excreted (unchanged in urine)", "setting": "[4]; pig 70, Study Group 2, SC, ZA […], dosing to 2 h post dose", "value": 5.17, "unit": "%"}, {"measurement": "mean percent of dose excreted unchanged in urine", "setting": "[4]; Study Group 1 (IV […])", "value": 11.40, "unit": "%"}, {"measurement": "mean percent of dose excreted unchanged in urine", "setting": "[4]; Study Group 2 (SC ZA without rHuPH20)", "value": 9.45, "unit": "%"}]}
